target: T1, Human P2Y12 receptor (Homo sapiens, UniProt Q9H244); experiment: Human P2Y12 receptor cell membrane binding assay with [3H] 2-Mes-ADP; settings: 1 nM [3H] 2-Mes-ADP, membranes of HEK cells expressing P2Y12 receptor; read-out: Binding activity (IC50)
T1 construct: expressed in transfected cells; host or cells: HEK cells
Procedure: Human P2Y12 Receptor Cell Membrane Binding Assay with [^3H] 2-Mes-ADP
Whether test compounds bind to P2Y12 receptor is measured by [3H]-2MesADP binding in HEK cells expressing P2Y12 receptor. The efficacy according to the amount of test compound can be known through the above test, competitive binding test to P2Y12 receptor, in which the binding material (2-Mes-ADP) is labeled with radioactivity isotope and then the extent of inhibition against the binding of radioactively labeled material is measured.
Preparation of P2Y12 Membrane Protein Fraction
Harvested P2Y12 cells were resuspended with Hypotonic buffer (10 mM HEPES, 10 mM NaCl, 1 mM EDTA, 1 mM EGTA pH 7.4) containing protease inhibitor cocktail. Following the incubation on ice for 15 min, cells were homogenized on ice (Glass/Teflon homogenizer; 1,000 rpm, 10 strokes). The supernant was taken from centrifugation at 500×g for 15 min and then recentrifuged the supernant at 30,000 rpm for 30 min. The membrane pellet was adjusted to 1 mg/mL concentration and stored at −80° C.
P2Y12 Receptor Cell Membrane Binding Assay with [3H] 2-Mes-ADP
The volume of 100 μL of 200 μg membrane protein was aliquoted into 96 well plate. 50 μL volume of test compounds and [^3H] 2-Mes-ADP (final: 1 nM) were added into each well. The total reaction of 0.2 ml/well was incubated for 1 hour at R.T. The reaction was terminated by filtration through GF/B filter using a 96-well cell harvester. […] Radioactivity bound to P2Y12 receptor membrane was counted in a scintillation counter. Total binding was determined with CPM of test group having no compound and non-specific binding was determined with CPM of test group containing 10 μM 2-Mes-ADP. Binding inhibition percent was calculated as follows: [100−(specific binding in the presence of test material/specific binding in the absence of test material×100)].

T1 sequence (Q9H244 whole entry): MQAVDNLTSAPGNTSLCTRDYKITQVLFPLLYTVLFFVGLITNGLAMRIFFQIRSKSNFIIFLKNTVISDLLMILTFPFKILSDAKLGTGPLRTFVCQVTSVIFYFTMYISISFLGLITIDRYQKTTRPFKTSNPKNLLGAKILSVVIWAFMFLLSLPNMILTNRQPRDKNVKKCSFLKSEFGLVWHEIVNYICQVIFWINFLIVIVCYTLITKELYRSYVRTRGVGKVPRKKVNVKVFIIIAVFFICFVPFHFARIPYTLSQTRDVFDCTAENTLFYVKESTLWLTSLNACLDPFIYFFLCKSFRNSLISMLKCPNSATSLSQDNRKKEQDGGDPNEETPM

In order of falling IC50:
1. CCc1cc2c(N3CCc4c([nH]n(CCO)c4=O)C3)nc(N3CCNC(=O)C3)nc2s1 [Example 6-43, 6-[6-Ethyl-2-(3-oxo-piperazin-1-yl)-thieno[2,3-d]pyrimidin-4-yl]-2-(2-hydroxy-ethyl)-1,2,4,5,6,7-hexahydro-pyrazolo[3,4-c]pyridin-3-one]  46.4 µM
2. CCc1cc2c(N3CCc4c([nH]n(-c5ccccc5)c4=O)C3)nc(N3CCNC(=O)C3)nc2s1 [Example 6-44, 6-[6-Ethyl-2-(3-oxo-piperazin-1-yl)-thieno[2,3-d]pyrimidin-4-yl]-2-phenyl-1,2,4,5,6,7-hexahydro-pyrazolo[3,4-c]pyridin-3-one]  21.5 µM
3. CCc1cc2c(N3CCc4ccccc4C3)nc(N3CCNC(=O)C3)nc2s1 [Example 6-27, 4-[4-(3,4-Dihydro-1H-isoquinolin-2-yl)-6-ethyl-thieno[2,3-d]pyrimidin-2-yl]-piperazin-2-one]  10 µM
4. CCc1cc2c(N3CCn4ccnc4C3)nc(N3CCNC(=O)C3)nc2s1 [Example 6-20, 4-[4-(5,6-Dihydro-8H-imidazo[1,2-a]pyrazin-7-yl)-6-ethyl-thieno[2,3-d]pyrimidin-2-yl]-piperazin-2-one]  7.64 µM
5. CCc1cc2c(N3CCc4cc(OC)c(OC)cc4C3)nc(N3CCNC(=O)C3)nc2s1 [Example 6-28, 4-[4-(6,7-Dimethoxy-3,4-dihydro-1H-isoquinolin-2-yl)-6-ethyl-thieno[2,3-d]pyrimidin-2-yl]-piperazin-2-one]  5.6 µM
6. CCCc1cc2c(N3CCc4c(nc(-c5ccccc5)nc4C(F)(F)F)C3)nc(N3CCNC(=O)C3)nc2s1 [Example 6-38, 4-[4-(2-Phenyl-4-trifluoromethyl-5,8-dihydro-6H-pyrido[3,4-d]pyrimidin-7-yl)-6-propyl-thieno[2,3-d]pyrimidin-2-yl]-piperazin-2-one]  4.42 µM
7. CCCc1cc2c(N3CCn4c(nnc4C(F)(F)F)C3)nc(C(=O)O)nc2s1 [Example 4-2, 6-Propyl-4-(3-trifluoromethyl-5,6-dihydro-8H-[1,2,4]triazolo[4,3-a]pyrazin-7-yl)-thieno[2,3-d]pyrimidine-2-carboxylic acid]  3.05 µM
8. CCc1nc2c(N3CCn4c(nnc4C(F)(F)F)C3)nc(NCCO)nc2s1 [Example 5-2, 2-[2-Ethyl-7-(3-trifluoromethyl-5,6-dihydro-8H-[1,2,4]triazolo[4,3-a]pyrazin-7-yl)-thiazolo[5,4-d]pyrimidin-5-ylamino]-ethanol]  2.32 µM
9. CCc1cc2c(N3CCc4c(ncnc4C(F)(F)F)C3)nc(N3CCNC(=O)C3)nc2s1 [Example 6-30, 4-[6-Ethyl-4-(4-trifluoromethyl-5,8-dihydro-6H-pyrido[3,4-d]pyrimidin-7-yl)-thieno[2,3-d]pyrimidin-2-yl]-piperazin-2-one]  1.04 µM
10. CCCc1cc2c(N3CCn4c(nnc4C(F)(F)F)C3)nc(NCC(O)CO)nc2s1 (stereo not drawn) [Example 1-2, 3-[6-Propyl-4-(3-trifluoromethyl-5,6-dihydro-8H-[1,2,4]triazolo[4,3-a]pyrazin-7-yl)-thieno[2,3-d]pyrimidin-2-ylamino]-propane-1,2-diol]  0.16 µM
11. CCCc1cc2c(N3CCn4c(nnc4C(F)(F)F)C3)nc(N3CCc4c(nc(C)nc4C(F)(F)F)C3)nc2s1 [Example 1-80, 2-Methyl-7-[6-propyl-4-(3-trifluoromethyl-5,6-dihydro-8H-[1,2,4]triazolo[4,3-a]pyrazin-7-yl)-thieno[2,3-d]pyrimidin-2-yl]-4-trifluoromethyl-5,6,7,8-tetrahydro-pyrido[3,4-d]pyrimidine]  0.043 µM

same assay, conditions: 30 μM compound; 1 nM [3H] 2-Mes-ADP

Work on `CCc1cc2c(N3CCc4c([nH]n(C)c4=O)C3)nc(OCC(O)CO)nc2s1` (stereo not drawn) [Example 6-42, 6-[2-(2,3-Dihydroxy-propoxy)-6-ethyl-thieno[2,3-d]pyrimidin-4-yl]-2-methyl-1,2,4,5,6,7-hexahydro-pyrazolo[3,4-c]pyridin-3-one] yielded an inhibition at 30 µM of 26.4%.

Reference: patent US20110166121A1 (LG LIFE SCIENCES LTD., priority 2008, published 2011)
